{"source": "patent US20050239760A1", "about": "“Angiostatic agents and methods and compositions for controlling ocular hypertension” (Alcon, Inc., priority 2004, published 2005)", "system": "choroidal neovascularization (CNV)", "assay": "Laser-induced choroidal neovascularization (CNV) in mice, rupture of Bruch's membrane", "type": "in vivo, C57BL/J mice", "details": "single 5 μl intravitreal injection immediately after laser, day 14 post-laser", "description": "Choroidal neovascularization (CNV) was induced in C57BL/J mice by rupturing Bruch's membrane via focal laser photocoagulation (FIG. 3). (Tobe T, et al., AM. J. PATHOL., 153:1641-1646 (1998)). Three to four retinal burns were placed in randomly assigned eye using the Alcon 532 nm EyeLite laser (75 μm spot size, 0.1 seconds duration, 120 mW) with a slit lamp delivery system. The laser bums were used to generate a rupture in Bruch's membrane, which was indicated ophthalmoscopically by the formation of a bubble under the retina. Only mice with laser burns that produced three bubbles per eye were included in the study. Burns were typically placed at the 3, 6, 9 or 12 o'clock positions in the posterior pole of the retina, avoiding the branch retinal arteries and veins.\nEach mouse was randomly assigned into one of the following treatment groups after laser: noninjected controls, sham-injected controls, vehicle-injected mice, or one of three anecortave acetate-injected groups. Control mice received laser photocoagulation in both eyes, where one eye received a sham injection, i.e. a pars plana needle puncture. For intravitreal-injected animals, one laser-treated eye received a 5 μl intravitreal injection of 0%, 0.1%, 1%, or 10% anecortave acetate. The intravitreal injection was performed immediately after laser photocoagulation.\nFourteen days post-laser, all mice were euthanized and systemically perfused with fluorescein-labeled dextran. Eyes were then harvested and prepared as choroidal flat mounts, and the 2-dimensional CNV area was quantified with computerized digital analysis. (Mori K., et al., AM. J. PATHOL. 159:313-320 (2001)). The median CNV area/burn per mouse per treatment was used for statistical analysis; P≦0.05 was considered significant."}
{"smiles": "CC(=O)OCC(=O)[C@@]1(O)CC[C@H]2[C@@H]3CCC4=CC(=O)CC[C@]4(C)C3=CC[C@@]21C", "note": "[anecortave acetate, 4,9(11)-pregnadien-17α,21-diol-3,20-dione-21-acetate]", "values": [{"measurement": "CNV versus vehicle-injected controls", "setting": "0.1% anecortave acetate", "result": "No difference"}, {"measurement": "CNV versus vehicle-injected controls", "setting": "1% anecortave acetate", "result": "No difference"}, {"measurement": "inhibition of CNV (median CNV area/burn) as compared to vehicle-injected eyes", "setting": "10% anecortave acetate, Mann-Whitney P<0.001", "result": 57.8, "unit": "%"}]}
